Source: article PMC4864240, “Biotype Characterization, Developmental Profiling, Insecticide Response and Binding Property of Bemisia tabaci Chemosensory Proteins: Role of CSP in Insect Defense” (PLoS ONE, 2016)

What was measured:
[1] = target: T1, BtabCSP1 (Bemisia tabaci, UniProt D6N3A3); assay: biochemical; format: binding
T1 sequence (D6N3A3 20-126): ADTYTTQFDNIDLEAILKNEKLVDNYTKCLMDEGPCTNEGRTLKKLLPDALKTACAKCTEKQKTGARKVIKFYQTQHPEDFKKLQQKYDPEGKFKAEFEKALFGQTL
Experimental: Protein-ligand binding affinity was determined for the three recombinant proteins. Emission fluorescence spectra were recorded on a Jasco FP-6500 Series fluorescence spectrofluorometer. […] Fluorescence was measured using an exciting wavelength of 337 nm. Emission spectrum was recorded between 350 and 500 nm.

[2] = tested on: B. tabaci Q-biotype adults; assay: Thiamethoxam cotton leaf-dip exposure, gene expression by qRT-PCR, biotype Q; format: in vivo, Bemisia tabaci
Experimental: (§1) One-step Reverse transcriptase PCR (TAKARA Bio. Inc) was used to check for tissue-distribution of CSP1 following the method described in Liu et al.. qRT-PCR was used to measure the changes of CSP1, CSP2 and CSP3 gene expression during development and over insecticide exposure. In a typical qRT-PCR experiment, cDNA templates (20 ng/μl) were used in a total volume of 20 μl containing SYBR Green I PCR Master Mix (Roche) and 200 nM of each primer, using 96-well optical-grade PCR plates and matched optical-grade membrane of StepOne Plus ABI system. qPCR primers were specifically designed to generate an amplicon of about 100–150 bps:
(§2) qRT-PCR products were sequenced to attest primer specificity. Each sample in B and Q was analyzed in triplicates. Three biological samples were used for each time point at each developmental stage and in the experiments on the effects of insecticide on the expression of CSP genes (see below). Reactions were run in a StepOne Plus system with initial denaturing step consisting of 2 min at 50°C and 10 min at 95°C, followed by 40 cycles of 15 s at 95°C-30 s at 60°C and terminated by a dissociation curve program from 60 to 95°C with a heating rate of 0.1°C and a continuous fluorescence acquisition. Expression levels were determined using the relative 2(-Delta Delta C(T)) method. Data were statistically analyzed by one-way Anova in SPSS.
(§3) Thiamethoxam is one major neonicotinoid insecticide, known to act on the nicotinic acetylcholine receptors (nAChR) within the insect central nervous system. To expose B. tabaci to the neonicotinoid insecticide thiamethoxam (25% WG, Syngenta, China), we chose the cotton leaf-dip method. One week<-old adult forms from the laboratory colonies of B- and Q-biotypes of B. tabaci were collected separately and exposed in the laboratory conditions (26°C temperature, 60% humidity, 16/8 h day/night) to 0, 6.25, 12.5, 25 and 50 μg/ml of thiamethoxam, respectively. Significant mortality rate was observed only for higher doses […] at different exposure time.
(§4) The experiment started (time 0) when insecticide treated and non-treated plant discs (2.5 cm diameter) were individually placed on agar base in 20-ml glass vials.Twenty-eight whiteflies belonging either to B or Q-biotype were aspirated into each vial. Vials were capped with an absorbent cotton stopper and inverted. Insecticide-treated whiteflies fed in treated vials on cotton plant leaf discs dipped for 10 s in formulated thiamethoxam diluted with distilled water. Whiteflies kept in vials containing cotton plant leaf discs of the same diameter dipped for 10 s in distilled water only were used as controls (0 μg/ml of thiamethoxam). After 1, 4, 24, 48 and 72 h post-exposure, all individuals in each category were collected in an eppendorf tube in treated and untreated groups of whiteflies in each of the two biotypes, kept on ice for 10 min and freeze-dried in nitrogen before storage at -70°C.

[3] = tested on: B. tabaci B-biotype adults; assay: Thiamethoxam cotton leaf-dip exposure, gene expression by qRT-PCR, biotype B; format: in vivo, Bemisia tabaci
Experimental: as §1, §2, §3
as §4, with “After 1, 4, 24, 48 and 72 h post-exposure, all individuals in each category were collected in an eppendorf tube in treated and untreated groups of whiteflies in each of the two biotypes, kept on ice for 10 min and freeze-dried in nitrogen before storage at -70°C.” left out

[4] = tested on: B- and Q-biotypes of B. tabaci; assay: Thiamethoxam cotton leaf-dip exposure, mortality; format: in vivo, Bemisia tabaci
Experimental: as §3
as §4, with “After 1, 4, 24, 48 and 72 h post-exposure, all individuals in each category were collected in an eppendorf tube in treated and untreated groups of whiteflies in each of the two biotypes, kept on ice for 10 min and freeze-dried in nitrogen before storage at -70°C.” left out

With `CN1COCN(Cc2cnc(Cl)s2)/C1=N\[N+](=O)[O-]` [Thiamethoxam] the IC50 [1] was greater than 50 µM, the “CSP2 and CSP3 expression” value ([2]; 1-72 h, 0-50 μg/ml) was “no time/dose effect” and the CSP1 gene expression ([2]; 1 and 4 h, all five doses) was “no changes”. For the same compound, the CSP1 gene expression ([2]; 24 h, gradual concentrations) was “gradual increase”, the CSP1 gene expression ([2]; 48 h) was “No effects” and the “increase in CSP1 gene expression (factor)” value ([2]; 72 h exposure, 12.5 and 50 μg/ml) was 10–25. The CYP6CM1 expression ([2]; sublethal dose) was “increased”, the CSP1 expression up-regulated ([2]; sublethal doses, 24 and 72 h) was 10–20 fold and the “CSP1 expression, time/dose effect” value ([3]; 1-72 h, 0-50 μg/ml) was “did not observe such a time/dose effect”. The “CSP2 and CSP3 expression” value ([3]; 1-72 h, 0-50 μg/ml) was “no time/dose effect”, the CSP1 gene expression ([3]; 1 and 4 h, all five doses) was “no changes” and the CYP6CX1 expression ([3]; sublethal dose) was “reduced”. The mortality ([4]; 100 μg/ml, 72 h exposure) was “killed most of the whiteflies” and the “doses with significant mortality rate” value ([4]; different exposure time) was greater than 100 µg/mL.
